Experimental data: patent publication US20020192161A1, “Animal model for evaluating analgesics” (priority 2001, published 2002)
Like-named read-outs stand apart in the source and are kept apart here.

How the values were obtained:
[1] = cited from earlier work; for area under serum drug concentration AUC0-2h: 200 mg dose; for AUC0-2h: 600 mg dose
[2] = Bioavailability of oral ibuprofen formulations in vagal-suppressed (propantheline-treated, Pain Model) rats; type: in vivo; conditions: male, Sprague-Dawley, rat, plasma, 20 mg/kg
Description: (§1) The animal models are Adult male Sprague-Dawley rats with body weight of 250-300 g, and which were cared for in accordance with the principles and guidelines of the Canadian Council of Animal Care. All rats were catheterized in the right jugular vein for sample collection.
An animal model having suppressed vagal properties were produced by administering (intraperitoneal injection) to the rats two 20 mg/kg doses of propantheline (test, n=6), an anticholinergic agent with known vagal suppressive properties, the first dose at 2 hours prior to administration of an NSAID, and the second at 1 hour prior.
(§2) The tablets were crushed gently and small pieces were administered into the stomach via a plastic tube followed by 0.5 mL tap water. […] They had free access to water.

[3] = Bioavailability of oral ibuprofen crushed tablets in control rats; type: in vivo, Sprague-Dawley rats
Description: as §1, §2

[4] = cited from earlier work
[5] = male, Sprague-Dawley, rat, plasma, po, 20 mg/kg

SMILES | area under serum drug concentration AUC0-2h ([1]; before dental extraction) [mg/L^−1/h] | AUC0-2h ([1]; after dental extraction) [ng·h/mL] | AUC0-2h ([1]; before dental extraction) [ng·h/mL] | Cmax [2] [ng/mL] | Tmax [2] [min] | AUC (0-8) ([3]; control rats, 20 mg/kg ibuprofen oral as crushed tablets) [μg/h/mL^−1] | Cmax [3, 5] [ng/mL] | Tmax [3, 5] [min] | delay in the mean time to peak concentration caused by surgery ([1]; 200 mg and 600 mg doses, dental surgery) | solubility in water [4]
CC(C)Cc1ccc([C@@H](C)C(=O)O)cc1 [R-ibuprofen, R(−)-2-(4-isobutylphenyl)propionic acid] | 5.5 | 5800 | 14400 | – | – | – | – | – | – | –
CC(C)Cc1ccc(C(C)C(=O)O)cc1 (racemic) [ibuprofen, (±)-2-(4-Isobutylphenyl)propionic acid] | – | – | – | 13800 | 45 | 139 | 40400 | 16.8 | two | less than 1 part of drug in 10,000 parts o
CC(C)Cc1ccc([C@H](C)C(=O)O)cc1 [S-ibuprofen, S(+)-2-(4-isobutylphenyl)propionic acid] | 5.6 | 7200 | 14200 | – | – | – | – | – | – | –
